Experiments:
[1] = test system: FlipGFP transgenic iPSC-L1 derived hHOs; assay: FlipGFP apoptosis reporter in hHOs (effector caspase activation); format: cell-based, human; conditions: 5 μM doxorubicin, positive control
Procedure: Lentiviral transduction. FlipGFP plasmid (Vector Builder) was transduced into a L1 iPSC line using a ZymoPURE™ II Plasmid Midiprep Kit (Fisher Scientific) according to manufacturer instructions. HEK293t were cultured in D10 media (DMEM+10% FBS+1% P/S) and later switched with reduced serum OptiMem™ (Gibco, Fisher Scientific) for 1 hour. Lipofectamine mixture (100 μl Lipofectamine 2000 (Thermo Fisher Scientific)+4 ml OptiMem™ sitting at room temperature for 5 minutes) was mixed with PLUS™ reagent mixture (200 μl PLUS™ reagent (Invitrogen, Fisher Scientific)+4 ml OptiMem™+20 μg lentiCRISPR plasmid+10 μg pMD2.gpVSVg (or pVSVgpMD2.g)+15 μg psPAX2) and was then added to the HEK293t cells and allowed to incubate at 37° C. for 6 hours. Following this, the media was changed to 30 ml D10+1% BSA per flask, without antibiotics. After 48-60 hours, the media was collected and centrifuged at 3000 rpm at 4° C. for 10 minutes. The supernatant was transferred to an Amicon® Filter Unit (Millipore-Sigma) and spun in a tabletop centrifuge at 3200 g for 30 minutes at 4° C. The flow through was dumped, and the process was repeated. The concentrated virus was aliquoted and stored at −80° C. Virus aliquot and polybrene (Fisher Scientific) were thawed at 37° C. Virus and polybrene were delivered to iPSC-L1s at low- to mid-confluences and incubated overnight. […]

[2] = test system: human heart organoids (hHOs); assay: Cardiomyocyte differentiation in hHOs after initial CHIR99021 exposure (day 0, 24 hours), confocal TNNT2 quantification and beating; format: cell-based; conditions: for TNNT2+ cells (cardiomyocyte content): read at day 15
Procedure: Self-assembling hHO differentiation. Accutase® (Innovative Cell Technologies) was used to dissociate PSCs for spheroid formation. After dissociation, cells were centrifuged at 300 g for 5 minutes and resuspended in Essential 8™ Flex medium containing 2 μM ROCK inhibitor Thiazovivin (Millipore Sigma). hPSCs were then counted using a Moxi Cell Counter (Orflo Technologies) and seeded at 10000 cells/well in round bottom ultra-low attachment 96-well plates (Costar) on day −2. The plate was then centrifuged at 100 g for 3 minutes and placed in an incubator at 37° C. and 5% CO2. After 24 hours (day −1), 50 μl of media was carefully removed from each well and 200 μl of fresh Essential 8™ Flex medium was added for a final volume of 250 μl/well. The plate was returned to the incubator for a further 24 hours. […] On day 1, 166 μl of media was removed and replaced with fresh RPMI 1640 with B27™ Supplement, minus insulin. On day 2, RPMI 1640 with B27™ Supplement, minus insulin containing Wnt-059 (Selleck) was added for a final concentration of 2 μM Wnt-059, and the samples were incubated for 48 hours. The media was changed on day 4 and day 6. On day 6, media was changed to RPMI 1640 with B27™ Supplement (Gibco). On day 7, a second 4 μM CHIR99021 exposure was conducted for 1 hour in RPMI 1640 with B27™ Supplement. Subsequently, media was changed every 48 hours until organoids were ready for analysis. Diabetic conditions were simulated by using basal RPMI media with 11.1 mM glucose and 58 nM insulin and compared with control media containing 3.5 mM glucose and 170 pM insulin.
Immunofluorescence. hHOs were transferred to microcentrifuge tubes (Eppendorf) using a cut 1000-μL pipette tip to avoid disruption to the organoids and fixed in 4% paraformaldehyde solution (dissolved in PBS) for 30 minutes at room temperature. Fixation was followed by three washes in PBS-Glycine (20 mM) and incubation in blocking/permeabilization solution (10% Donkey Normal Serum, 0.5% Triton™ X-100, 0.5% BSA in PBS) on a thermal mixer (Thermo Scientific) at 300 RPM at 4° C. overnight. hHOs were then washed three times in PBS and incubated with primary antibodies (see Table 1) in Antibody Solution (1% Donkey Normal Serum, 0.5% Triton™ X-100, 0.5% BSA in PBS) on a thermal mixer at 300 RPM at 4° C. for 24 hours. […]
(§1) Confocal microscopy and image analysis. Samples were imaged using two confocal laser scanning microscopes (Nikon Instruments A1 Confocal Laser Microscope; Zeiss LSM 880 NLO Confocal Microscope System) and images were analyzed using Fiji (hypertext transfer protocol secure//imagej.net/Fiji). For tissue region quantification in the organoids, DAPI positive cells were used for normalization against the target cell marker of interest across three z-planes throughout each organoid. […]

[3] = test system: human heart organoids (hHOs); assay: Second CHIR99021 exposure on day 7: epicardial cell and cardiomyocyte formation in hHOs (confocal quantification); format: cell-based
Procedure: Self-assembling hHO differentiation. Accutase® (Innovative Cell Technologies) was used to dissociate PSCs for spheroid formation. After dissociation, cells were centrifuged at 300 g for 5 minutes and resuspended in Essential 8™ Flex medium containing 2 μM ROCK inhibitor Thiazovivin (Millipore Sigma). hPSCs were then counted using a Moxi Cell Counter (Orflo Technologies) and seeded at 10000 cells/well in round bottom ultra-low attachment 96-well plates (Costar) on day −2. The plate was then centrifuged at 100 g for 3 minutes and placed in an incubator at 37° C. and 5% CO2. After 24 hours (day −1), 50 μl of media was carefully removed from each well and 200 μl of fresh Essential 8™ Flex medium was added for a final volume of 250 μl/well. The plate was returned to the incubator for a further 24 hours. On day 0, 166 μl (approximately ⅔ of total well volume) of media was removed from each well and 166 μl of RPMI 1640 with B27™ Supplement, minus insulin (Gibco) containing CHIR99021 (Selleck) was added at a final concentration of 4 μM/well along with BMP4 at 0.36 pM (1.25 ng/ml) and ActA at 0.08 pM (1 ng/ml) for 24 hours. On day 1, 166 μl of media was removed and replaced with fresh RPMI 1640 with B27™ Supplement, minus insulin. On day 2, RPMI 1640 with B27™ Supplement, minus insulin containing Wnt-059 (Selleck) was added for a final concentration of 2 μM Wnt-059, and the samples were incubated for 48 hours. The media was changed on day 4 and day 6. On day 6, media was changed to RPMI 1640 with B27™ Supplement (Gibco). […] Subsequently, media was changed every 48 hours until organoids were ready for analysis. Diabetic conditions were simulated by using basal RPMI media with 11.1 mM glucose and 58 nM insulin and compared with control media containing 3.5 mM glucose and 170 pM insulin.
Immunofluorescence. hHOs were transferred to microcentrifuge tubes (Eppendorf) using a cut 1000-μL pipette tip to avoid disruption to the organoids and fixed in 4% paraformaldehyde solution (dissolved in PBS) for 30 minutes at room temperature. […]
as §1

[4] = single 2 μM CHIR99021 for 1 hour on day 7, read at day 15

Row | Structure (SMILES) | apoptosis (FlipGFP fluorescence) [1] | apoptosis (FlipGFP fluorescence) ([1]; listed as Doxorubicin) | TNNT2+ cells (cardiomyocyte content) ([2]; 4 μM CHIR99021 on day 0 for 24 hours) [%] | functional properties (beats per minute, percentage of beating hHOs) ([2]; 4 μM versus 6.6 μM and 8 μM CHIR99021) | TNNT2+ cells (cardiomyocyte content) ([2]; 6.6 μM CHIR99021 on day 0 for 24 hours) [%] | TNNT2+ cells (cardiomyocyte content) ([2]; 8 μM CHIR99021 on day 0 for 24 hours) [%] | formation of cardiac cell types other than epicardial cells (cardiomyocytes) ([3]; high concentrations or long exposure times of second exposure) | formation of proepicardium and epicardial cells ([3]; second exposure on day 7, 2-8 μM, 1-48 hours) | cardiomyocytes (TNNT2+ area) [3, 4] [%] | epicardial cells (WT1+/TJP1+ area) [3, 4]
1 | COc1cccc2c1C(=O)c1c(O)c3c(c(O)c1C2=O)C[C@@](O)(C(=O)CO)C[C@@H]3O[C@H]1C[C@H](N)[C@H](O)[C@H](C)O1 [doxorubicin] | high apoptosis | evident signs of cell death |  |  |  |  |  |  |  | 
2 | Cc1c[nH]c(-c2cnc(NCCNc3ccc(C#N)cn3)nc2-c2ccc(Cl)cc2Cl)n1 [CHIR99021] |  |  | 64±5 | best functional properties of the three concentrations | 9.6±5 | 2.4±2 | marked inhibition | robustly promoted the formation of proepicardium and epicardial cells | 60 | 10-20%
